Values after ≈ are worked out from the molar mass of the structure shown. Values belong to the molecule of their own block, whether it stands above or below them.
Experiments:
Enterococcus faecalis [1] = test: Antibacterial activity against Enterococcus faecalis; Range is 64->64; assay type: functional
Mus musculus = test: Antibacterial activity against Staphylococcus aureus infection in mouse after i.v. administration (Vancomycin, ED50= 1.0 mg/kg ); assay type: functional; details: route intravenous
Staphylococcus aureus [2] = test: Antibacterial activity against Staphylococcus aureus; assay type: functional
Escherichia coli = test: Antibacterial activity against Escherichia coli at </=64 ug/mL; No activity; assay type: functional, organism-based
Enterococcus faecalis [3] = test: Antibacterial activity against Enterococcus faecalis; Range is 16-64; assay type: functional
Staphylococcus aureus [4] = test: Antibacterial activity against Staphylococcus aureus; Range is 4-8; assay type: functional
Staphylococcus aureus [5] = test: Antibacterial activity against Staphylococcus aureus; Range is 0.5-2; assay type: functional
Enterococcus faecalis [6] = test: Antibacterial activity against Enterococcus faecalis; Range is 4-16; assay type: functional
Staphylococcus aureus [7] = test: Antibacterial activity against Staphylococcus aureus; Range is 1-2; assay type: functional
Enterococcus faecalis [8] = test: Antibacterial activity against Enterococcus faecalis; assay type: functional
Enterococcus faecalis [9] = test: Antibacterial activity against Enterococcus faecalis; Range is 8-16; assay type: functional
Staphylococcus aureus [10] = test: Antibacterial activity against Staphylococcus aureus; Range is 2-8; assay type: functional
Enterococcus faecalis [11] = test: Antibacterial activity against Enterococcus faecalis; Range is 4-8; assay type: functional
Enterococcus faecalis [12] = test: Antibacterial activity against Enterococcus faecalis; Range is 1-2; assay type: functional
Staphylococcus aureus [13] = test: Antibacterial activity against Staphylococcus aureus; Range is 0.5-1; assay type: functional

SMILES: C[C@@H](c1ccccc1)[C@@H]1NC(=O)CNC(=O)[C@H](CO)NC(=O)[C@@H]([C@@H](O)[C@@H]2CNC(N)N2[C@H]2O[C@H](CO)[C@@H](O)[C@H](O)[C@@H]2O)NC(=O)[C@H]([C@@H](O)[C@@H]2CNC(N)N2)NC(=O)[C@@H](Cc2ccc(O[C@H]3O[C@H](COC(=O)OCc4ccccc4)[C@@H](O[C@H]4O[C@H](CO)[C@@H](O)[C@H](O)[C@@H]4O)[C@H](O)[C@@H]3O)cc2)NC1=O (stereo partly drawn)
- MIC (Enterococcus faecalis [3]): 64 µg/mL (≈ 44.6 µM)
- MIC (Escherichia coli): No activity
- MIC (Staphylococcus aureus [4]): 8 µg/mL (≈ 5.58 µM)

SMILES: CCCCCCC(=O)OC[C@H]1O[C@H](Oc2ccc(C[C@H]3NC(=O)[C@H]([C@@H](C)c4ccccc4)NC(=O)CNC(=O)[C@H](CO)NC(=O)[C@@H]([C@@H](O)[C@@H]4CNC(N)N4[C@H]4O[C@H](CO)[C@@H](O)[C@H](O)[C@@H]4O)NC(=O)[C@H]([C@@H](O)[C@@H]4CNC(N)N4)NC3=O)cc2)[C@@H](O)[C@@H](O)[C@@H]1O[C@H]1O[C@H](CO)[C@@H](O)[C@H](O)[C@@H]1O (stereo partly drawn)
- MIC (Escherichia coli): No activity
- MIC (Staphylococcus aureus [5]): 2 µg/mL (≈ 1.42 µM)
- MIC (Enterococcus faecalis [6]): 16 µg/mL (≈ 11.3 µM)

SMILES: C[C@@H](c1ccccc1)[C@@H]1NC(=O)CNC(=O)[C@H](CO)NC(=O)[C@@H]([C@@H](O)[C@@H]2CNC(N)N2[C@H]2O[C@H](CO)[C@@H](O)[C@H](O)[C@@H]2O)NC(=O)[C@H]([C@@H](O)[C@@H]2CNC(N)N2)NC(=O)[C@@H](Cc2ccc(O[C@H]3O[C@H](CO)[C@@H](O[C@H]4O[C@H](COC(=O)OCc5ccccc5)[C@@H](O)[C@H](O)[C@@H]4O)[C@H](O)[C@@H]3O)cc2)NC1=O (stereo partly drawn)
- MIC (Enterococcus faecalis [9]): 16 µg/mL (≈ 11.2 µM)
- MIC (Staphylococcus aureus [10]): 8 µg/mL (≈ 5.58 µM)
- MIC (Escherichia coli): No activity

SMILES: C[C@@H](c1ccccc1)[C@@H]1NC(=O)CNC(=O)[C@H](CO)NC(=O)[C@@H]([C@@H](O)[C@@H]2CNC(N)N2[C@H]2O[C@H](CO)[C@@H](O)[C@H](O)[C@@H]2O)NC(=O)[C@H]([C@@H](O)[C@@H]2CNC(N)N2)NC(=O)[C@@H](Cc2ccc(O[C@H]3O[C@H](COC(=O)C(c4ccccc4)c4ccccc4)[C@@H](O[C@H]4O[C@H](CO)[C@@H](O)[C@H](O)[C@@H]4O)[C@H](O)[C@@H]3O)cc2)NC1=O (stereo partly drawn)
- MIC (Staphylococcus aureus [7]): 2 µg/mL (≈ 1.34 µM)
- MIC (Escherichia coli): No activity
- MIC (Enterococcus faecalis [11]): 8 µg/mL (≈ 5.36 µM)

SMILES: C[C@@H](c1ccccc1)[C@@H]1NC(=O)CNC(=O)[C@H](CO)NC(=O)[C@@H]([C@@H](O)[C@@H]2CNC(N)N2[C@H]2O[C@H](CO)[C@@H](O)[C@H](O)[C@@H]2O)NC(=O)[C@H]([C@@H](O)[C@@H]2CNC(N)N2)NC(=O)[C@@H](Cc2ccc(O[C@H]3O[C@H](CO)[C@@H](O[C@H]4O[C@H](COC(=O)C(c5ccccc5)c5ccccc5)[C@@H](O)[C@H](O)[C@@H]4O)[C@H](O)[C@@H]3O)cc2)NC1=O (stereo partly drawn)
- MIC (Enterococcus faecalis [12]): 2 µg/mL (≈ 1.34 µM)
- MIC (Staphylococcus aureus [13]): 1 µg/mL (≈ 0.67 µM)
- ED50 (Mus musculus): 0.29 mg/kg
- MIC (Escherichia coli): No activity

Continued, in another order:

- MIC (Enterococcus faecalis [1]): 64 µg/mL (≈ 46.3 µM)
- MIC (Staphylococcus aureus [2]): 8 µg/mL (≈ 5.78 µM)
- MIC (Escherichia coli): No activity
SMILES: CC(C)CC(=O)O[C@@H]1[C@@H](O[C@H]2[C@H](O)[C@H](O)[C@@H](Oc3ccc(C[C@H]4NC(=O)[C@H]([C@@H](C)c5ccccc5)NC(=O)CNC(=O)[C@H](CO)NC(=O)[C@@H]([C@@H](O)[C@@H]5CNC(N)N5[C@H]5O[C@H](CO)[C@@H](O)[C@H](O)[C@@H]5O)NC(=O)[C@H]([C@@H](O)[C@@H]5CNC(N)N5)NC4=O)cc3)O[C@@H]2CO)O[C@H](CO)[C@@H](O)[C@@H]1O (stereo partly drawn)
- ED50 (Mus musculus): 3.5 mg/kg

- MIC (Staphylococcus aureus [7]): 2 µg/mL (≈ 1.4 µM)
- MIC (Escherichia coli): No activity
- MIC (Enterococcus faecalis [8]): 4 µg/mL (≈ 2.81 µM)
SMILES: CCCC(CCC)C(=O)OC[C@H]1O[C@H](O[C@H]2[C@H](O)[C@H](O)[C@@H](Oc3ccc(C[C@H]4NC(=O)[C@H]([C@@H](C)c5ccccc5)NC(=O)CNC(=O)[C@H](CO)NC(=O)[C@@H]([C@@H](O)[C@@H]5CNC(N)N5[C@H]5O[C@H](CO)[C@@H](O)[C@H](O)[C@@H]5O)NC(=O)[C@H]([C@@H](O)[C@@H]5CNC(N)N5)NC4=O)cc3)O[C@@H]2CO)[C@@H](O)[C@@H](O)[C@@H]1O (stereo partly drawn)
- ED50 (Mus musculus): 0.52 mg/kg

- MIC (Escherichia coli): No activity
- MIC (Enterococcus faecalis [8]): 64 µg/mL (≈ 46.3 µM)
- MIC (Staphylococcus aureus [4]): 8 µg/mL (≈ 5.78 µM)
SMILES: CC(C)CC(=O)O[C@@H]1[C@H](O)[C@@H](O[C@H]2[C@H](O)[C@H](O)[C@@H](Oc3ccc(C[C@H]4NC(=O)[C@H]([C@@H](C)c5ccccc5)NC(=O)CNC(=O)[C@H](CO)NC(=O)[C@@H]([C@@H](O)[C@@H]5CNC(N)N5[C@H]5O[C@H](CO)[C@@H](O)[C@H](O)[C@@H]5O)NC(=O)[C@H]([C@@H](O)[C@@H]5CNC(N)N5)NC4=O)cc3)O[C@@H]2CO)O[C@H](CO)[C@H]1O (stereo partly drawn)
- ED50 (Mus musculus): 2.6 mg/kg

Reference: ChEMBL document CHEMBL1146703, “Mannopeptimycin esters and carbonates, potent antibiotic agents against drug-resistant bacteria” (2004)
